Results as given in patent US20250296938A1, “Compounds that Interact with the Ras Superfamily for the Treatment of Cancers, Inflammatory Diseases, Rasopathies, and Fibrotic Disease” (SHY Therapeutics, LLC, priority 2018, published 2025).
Read-outs that look alike come from different tables or passages of the source.

Columns and labels:
Test in all cases: Ras GTP binding domain inhibition assay (Cy3-GTP/Cy5-GTP competition)
[1] = molecular target: T1, KRas G12D mutant (Homo sapiens, UniProt P01116, G12D); settings: 20 μM
T1 construct: fused on or other part: His tag, used for capture on nickel-coated plates
How it was run: (§1)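 Compounds tested at 20 μM or in serial dilution for IC50 against nickel-captured His-tagged GTPase, 3 hours at room temperature, with or without His-Sos GEF added for last hour. Fluorescent GTP then added at 100 nM for 45 minutes; wells washed, bound label measured by fluorescence.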

[2] = test system: KRas wild type; set-up: species or system human; settings: 20 μM; for KRas wild type % inh.: without SOS (Table 7A); for KRas wild type: % inh.: without SOS
How it was run: as §1

[3] = test system: KRas Q61H mutant; set-up: species or system human; settings: 20 μM
How it was run: as §1

[4] = test system: KRas G12C mutant; set-up: species or system human; settings: 20 μM
How it was run: as §1

[5] = with SOS (Table 7A), read-out: KRas G12D mutant + SOS: % inh.
[6] = without SOS (Table 7A), read-out: KRas G12D mutant: % inh.
[7] = with SOS, read-out: KRas G-12D mutant + SOS: % inh.
[8] = without SOS, read-out: KRas G12D mutant: % inh.

| SMILES | inhibition at 20 µM [1, 5] | inhibition at 20 µM [1, 6] | KRas wild type + SOS: % inh. ([2]; with SOS (Table 7A)) | KRas wild type % inh. [2] | KRas Q61H mutant + SOS: % inh. ([3]; with SOS (Table 7A)) | KRas Q61H mutant: % inh. ([3]; without SOS (Table 7A)) | KRas G12C mutant + SOS: % inh. ([4]; with SOS (Table 7A)) | KRas G12C mutant: % inh. ([4]; without SOS (Table 7A)) | inhibition at 20 µM [1, 7] | inhibition at 20 µM [1, 8] | KRas wild type + SOS: % inh. ([2]; with SOS) | KRas wild type: % inh. [2] | KRas Q61H mutant + SOS: % inh. ([3]; with SOS) | KRas Q61H mutant: % inh. ([3]; without SOS) | KRas G12C mutant + SOS: % inh. ([4]; with SOS) | KRas G12C mutant: % inh. ([4]; without SOS) |
| --- | --- | --- | --- | --- | --- | --- | --- | --- | --- | --- | --- | --- | --- | --- | --- | --- |
| COc1cccc(-c2sc3nc(-c4nccn4C)nc(NC4CCC(OC)C4)c3c2-c2ccccc2)c1F (stereo not drawn) [drawing 883] | 51 to 75% | 26 to 50% | D (76-100% inhibition) | C (51-75% inhibition) | D (76-100% inhibition) | C (51-75% inhibition) | D (76-100% inhibition) | B (26-50% inhibition) | – | – | – | – | – | – | – | – |
| COCCc1ccc(Oc2nc(-c3ccccn3)nc(O)c2OC)cc1 [drawing 814] | – | – | – | – | – | – | – | – | 26 to 50% | 51 to 75% | B (26-50% inhibition) | D (76-100% inhibition) | C (51-75% inhibition) | B (26-50% inhibition) | B (26-50% inhibition) | A (1-25% inhibition) |
| COCCNc1nc(-c2cn(C)cn2)nc2sc(-c3cccc(OC)c3Cl)c(-c3ccc(OC)cc3)c12 [drawing 797] | – | – | – | – | – | – | – | – | 26 to 50% | 26 to 50% | D (76-100% inhibition) | C (51-75% inhibition) | D (76-100% inhibition) | C (51-75% inhibition) | D (76-100% inhibition) | B (26-50% inhibition) |
| CO[C@H]1CC[C@@H](Nc2nc(-c3ncc[nH]3)nc3sc(-c4ccn(C)n4)c(-c4ccccc4)c23)C1 [drawing 911] | 51 to 75% | 26 to 50% | C (51-75% inhibition) | C (51-75% inhibition) | C (51-75% inhibition) | B (26-50% inhibition) | C (51-75% inhibition) | C (51-75% inhibition) | – | – | – | – | – | – | – | – |
| CO[C@H]1C[C@@H](Nc2nc(-c3nccn3C)nc3sc(C(=O)N4CCOCC4)c(-c4ccccc4)c23)C1 [drawing 922] | 51 to 75% | 51 to 75% | C (51-75% inhibition) | C (51-75% inhibition) | C (51-75% inhibition) | D (76-100% inhibition) | C (51-75% inhibition) | D (76-100% inhibition) | – | – | – | – | – | – | – | – |
| Cn1ccc(-c2sc3nc(-c4nccn4C)nc(NC4CCOCC4)c3c2-c2ccccc2)n1 [drawing 862] | – | – | – | – | – | – | – | – | 1 to 25% | 1 to 25% | B (26-50% inhibition) | B (26-50% inhibition) | B (26-50% inhibition) | B (26-50% inhibition) | A (1-25% inhibition) | 0 (0% inhibition) |
| O=C(c1nc(-c2ccccn2)nc(O)c1O)N1CCc2ccccc2C1 [drawing 832] | – | – | – | – | – | – | – | – | 26 to 50% | 51 to 75% | B (26-50% inhibition) | C (51-75% inhibition) | B (26-50% inhibition) | C (51-75% inhibition) | B (26-50% inhibition) | C (51-75% inhibition) |
| CO[C@H]1C[C@@H](Nc2nc(-c3nccn3C)nc3sc(-c4ccn(C)n4)c(C)c23)C1 [drawing 914] | 51 to 75% | 51 to 75% | C (51-75% inhibition) | C (51-75% inhibition) | C (51-75% inhibition) | C (51-75% inhibition) | C (51-75% inhibition) | C (51-75% inhibition) | – | – | – | – | – | – | – | – |
| CO[C@H]1C[C@@H](Nc2nc(-c3nccn3C)nc3sccc23)C1 [drawing 903] | 76 to 100% | 76 to 100% | D (76-100% inhibition) | C (51-75% inhibition) | D (76-100% inhibition) | D (76-100% inhibition) | D (76-100% inhibition) | D (76-100% inhibition) | – | – | – | – | – | – | – | – |
| COCC(C)Nc1nc(-c2nccn2C)nc2sc(-c3ccn(C)n3)c(-c3ccc(OC)cc3)c12 (stereo not drawn) [drawing 869] | – | – | – | – | – | – | – | – | 1 to 25% | 0% | A (1-25% inhibition) | A (1-25% inhibition) | A (1-25% inhibition) | A (1-25% inhibition) | A (1-25% inhibition) | 0 (0% inhibition) |
| Cn1ccc(-c2sc3nc(-c4nccn4C)nc(N[C@@H]4CC[C@H](O)C4)c3c2-c2ccccc2)n1 (racemic) [drawing 909] | 0% | 0% | A (1-25% inhibition) | A (1-25% inhibition) | 0 (0% inhibition) | A (1-25% inhibition) | A (1-25% inhibition) | A (1-25% inhibition) | – | – | – | – | – | – | – | – |
| COc1c(O)nc(-c2ccccn2)nc1Oc1cccnc1 [drawing 802] | – | – | – | – | – | – | – | – | 51 to 75% | 51 to 75% | B (26-50% inhibition) | D (76-100% inhibition) | C (51-75% inhibition) | D (76-100% inhibition) | C (51-75% inhibition) | C (51-75% inhibition) |
